Experimental data as given in PMC8217170, “Phase Ib dose-escalation study of the hypoxia-modifier Myo-inositol trispyrophosphate in patients with hepatopancreatobiliary tumors” (Nature Communications, 2021).

Assay: Plasma levels and pharmacokinetics of intravenous ITPP

O=P1(O)OC2C3OP(=O)(O)OP(=O)(O)OC3C3OP(=O)(O)OP(=O)(O)OC3C2OP(=O)(O)O1 (centres unmarked) [ITPP, Myo-inositol trispyrophosphate]
ITPP plasma level, Concentration (Cohort 6, Patient 18, Day 5, Hour 10): 60.6 µg/mL | ITPP plasma level, Concentration (Cohort 6, Patient 19, Day 1, Hour 0): 0 µg/mL | ITPP plasma level, Concentration (Cohort 6, Patient 19, Day 1, Hour 3): 392 µg/mL | ITPP plasma level, Concentration (Cohort 6, Patient 19, Day 1, Hour 6): 294 µg/mL | ITPP plasma level, Concentration (Cohort 6, Patient 19, Day 1, Hour 8.5): 219 µg/mL | ITPP plasma level, Concentration (Cohort 6, Patient 19, Day 1, Hour 9): 185 µg/mL | ITPP plasma level, Concentration (Cohort 6, Patient 19, Day 1, Hour 10): 154 µg/mL | ITPP plasma level, Concentration (Cohort 6, Patient 19, Day 5, Hour 0): 0 µg/mL | ITPP plasma level, Concentration (Cohort 6, Patient 19, Day 5, Hour 3): 287 µg/mL | ITPP plasma level, Concentration (Cohort 6, Patient 19, Day 5, Hour 6): 329 µg/mL | ITPP plasma level, Concentration (Cohort 6, Patient 19, Day 5, Hour 8.5): 265 µg/mL | ITPP plasma level, Concentration (Cohort 6, Patient 19, Day 5, Hour 9): 244 µg/mL | ITPP plasma level, Concentration (Cohort 6, Patient 19, Day 5, Hour 10): 216 µg/mL | ITPP plasma level, Concentration (Cohort 6, Patient 20, Day 1, Hour 0): 0 µg/mL | ITPP plasma level, Concentration (Cohort 6, Patient 20, Day 1, Hour 3): 279 µg/mL | ITPP plasma level, Concentration (Cohort 6, Patient 20, Day 1, Hour 6): 307 µg/mL | ITPP plasma level, Concentration (Cohort 6, Patient 20, Day 1, Hour 8.5): 282 µg/mL | ITPP plasma level, Concentration (Cohort 6, Patient 20, Day 1, Hour 9): 396 µg/mL | ITPP plasma level, Concentration (Cohort 6, Patient 20, Day 1, Hour 10): 396 µg/mL | ITPP plasma level, Concentration (Cohort 6, Patient 20, Day 5, Hour 0): 0 µg/mL | ITPP plasma level, Concentration (Cohort 6, Patient 20, Day 5, Hour 3): 411 µg/mL | ITPP plasma level, Concentration (Cohort 6, Patient 20, Day 5, Hour 6): 595 µg/mL | ITPP plasma level, Concentration (Cohort 6, Patient 20, Day 5, Hour 8.5): 466 µg/mL | ITPP plasma level, Concentration (Cohort 6, Patient 20, Day 5, Hour 9): 301 µg/mL | ITPP plasma level, Concentration (Cohort 6, Patient 20, Day 5, Hour 10): 279 µg/mL | ITPP plasma level, Concentration (Cohort 6, Patient 21, Day 1, Hour 0): 0 µg/mL | ITPP plasma level, Concentration (Cohort 6, Patient 21, Day 1, Hour 3): 249 µg/mL | ITPP plasma level, Concentration (Cohort 6, Patient 21, Day 1, Hour 6): 325 µg/mL | ITPP plasma level, Concentration (Cohort 6, Patient 21, Day 1, Hour 8.5): 281 µg/mL | ITPP plasma level, Concentration (Cohort 6, Patient 21, Day 1, Hour 9): 241 µg/mL | ITPP plasma level, Concentration (Cohort 6, Patient 21, Day 1, Hour 10): 172 µg/mL | ITPP plasma level, Concentration (Cohort 6, Patient 21, Day 5, Hour 0): 0 µg/mL | ITPP plasma level, Concentration (Cohort 6, Patient 21, Day 5, Hour 3): 350 µg/mL | ITPP plasma level, Concentration (Cohort 6, Patient 21, Day 5, Hour 6): 204 µg/mL | ITPP plasma level, Concentration (Cohort 6, Patient 21, Day 5, Hour 8.5): 217 µg/mL | ITPP plasma level, Concentration (Cohort 6, Patient 21, Day 5, Hour 9): 184 µg/mL | ITPP plasma level, Concentration (Cohort 6, Patient 21, Day 5, Hour 10): 125 µg/mL | ITPP plasma level, Concentration (Cohort 7, Patient 22, Day 1, Hour 0): 0 µg/mL | ITPP plasma level, Concentration (Cohort 7, Patient 22, Day 1, Hour 3): 280 µg/mL | ITPP plasma level, Concentration (Cohort 7, Patient 22, Day 1, Hour 6): 384 µg/mL | ITPP plasma level, Concentration (Cohort 7, Patient 22, Day 1, Hour 8.5): 281 µg/mL | ITPP plasma level, Concentration (Cohort 7, Patient 22, Day 1, Hour 9): 215 µg/mL | ITPP plasma level, Concentration (Cohort 7, Patient 22, Day 1, Hour 10): 152 µg/mL | ITPP plasma level, Concentration (Cohort 7, Patient 22, Day 5, Hour 0): 0 µg/mL | ITPP plasma level, Concentration (Cohort 7, Patient 22, Day 5, Hour 3): 257 µg/mL | ITPP plasma level, Concentration (Cohort 7, Patient 22, Day 5, Hour 6): 351 µg/mL | ITPP plasma level, Concentration (Cohort 7, Patient 22, Day 5, Hour 8.5): 319 µg/mL | ITPP plasma level, Concentration (Cohort 7, Patient 22, Day 5, Hour 9): 302 µg/mL | ITPP plasma level, Concentration (Cohort 7, Patient 22, Day 5, Hour 10): 203 µg/mL | ITPP plasma level, Concentration (Cohort 7, Patient 23, Day 1, Hour 0): 0 µg/mL | ITPP plasma level, Concentration (Cohort 7, Patient 23, Day 1, Hour 3): 286 µg/mL | ITPP plasma level, Concentration (Cohort 7, Patient 23, Day 1, Hour 6): 329 µg/mL | ITPP plasma level, Concentration (Cohort 7, Patient 23, Day 1, Hour 8.5): 316 µg/mL | ITPP plasma level, Concentration (Cohort 7, Patient 23, Day 1, Hour 9): 178 µg/mL | ITPP plasma level, Concentration (Cohort 7, Patient 23, Day 1, Hour 10): 119 µg/mL | ITPP plasma level, Concentration (Cohort 7, Patient 23, Day 5, Hour 0): 0 µg/mL | ITPP plasma level, Concentration (Cohort 7, Patient 23, Day 5, Hour 3): 282 µg/mL | ITPP plasma level, Concentration (Cohort 7, Patient 23, Day 5, Hour 6): 478 µg/mL | ITPP plasma level, Concentration (Cohort 7, Patient 23, Day 5, Hour 8.5): 418 µg/mL | ITPP plasma level, Concentration (Cohort 7, Patient 23, Day 5, Hour 9): 188 µg/mL | ITPP plasma level, Concentration (Cohort 7, Patient 23, Day 5, Hour 10): 185 µg/mL | ITPP plasma level, Concentration (Cohort 7, Patient 24, Day 1, Hour 0): 0 µg/mL | ITPP plasma level, Concentration (Cohort 7, Patient 24, Day 1, Hour 3): 278 µg/mL | ITPP plasma level, Concentration (Cohort 7, Patient 24, Day 1, Hour 6): 230 µg/mL | ITPP plasma level, Concentration (Cohort 7, Patient 24, Day 1, Hour 8.5): 226 µg/mL | ITPP plasma level, Concentration (Cohort 7, Patient 24, Day 1, Hour 9): 152 µg/mL | ITPP plasma level, Concentration (Cohort 7, Patient 24, Day 1, Hour 10): 103 µg/mL | ITPP plasma level, Concentration (Cohort 7, Patient 24, Day 2, Hour 0): 0 µg/mL | ITPP plasma level, Concentration (Cohort 7, Patient 24, Day 2, Hour 9): 143 µg/mL | ITPP plasma level, Concentration (Cohort 7, Patient 24, Day 3, Hour 0): 0 µg/mL | ITPP plasma level, Concentration (Cohort 7, Patient 24, Day 3, Hour 9): 237 µg/mL | ITPP plasma level, Concentration (Cohort 7, Patient 24, Day 4, Hour 0): 0 µg/mL | ITPP plasma level, Concentration (Cohort 7, Patient 24, Day 4, Hour 9): 199 µg/mL | ITPP plasma level, Concentration (Cohort 7, Patient 24, Day 5, Hour 0): 0 µg/mL | ITPP plasma level, Concentration (Cohort 7, Patient 24, Day 5, Hour 3): 299 µg/mL | ITPP plasma level, Concentration (Cohort 7, Patient 24, Day 5, Hour 6): 358 µg/mL | ITPP plasma level, Concentration (Cohort 7, Patient 24, Day 5, Hour 8.5): 245 µg/mL | ITPP plasma level, Concentration (Cohort 7, Patient 24, Day 5, Hour 9): 200 µg/mL | ITPP plasma level, Concentration (Cohort 7, Patient 24, Day 5, Hour 10): 141 µg/mL | ITPP plasma level, Concentration (Cohort 7, Patient 24, Day 6, Hour 0): 0 µg/mL | ITPP plasma level, Concentration (Cohort 7, Patient 24, Day 6, Hour 9): 200 µg/mL | ITPP plasma level, Concentration (Cohort 7, Patient 24, Day 7, Hour 0): 0 µg/mL | ITPP plasma level, Concentration (Cohort 7, Patient 24, Day 7, Hour 9): 208 µg/mL | ITPP plasma level, Concentration (Cohort 7, Patient 24, Day 8, Hour 0): 0 µg/mL | ITPP plasma level, Concentration (Cohort 7, Patient 24, Day 8, Hour 9): 181 µg/mL | ITPP plasma level, Concentration (Cohort 7, Patient 24, Day 9, Hour 0): 0 µg/mL | ITPP plasma level, Concentration (Cohort 7, Patient 24, Day 9, Hour 3): 247 µg/mL | ITPP plasma level, Concentration (Cohort 7, Patient 24, Day 9, Hour 6): 345 µg/mL | ITPP plasma level, Concentration (Cohort 7, Patient 24, Day 9, Hour 8.5): 217 µg/mL | ITPP plasma level, Concentration (Cohort 7, Patient 24, Day 9, Hour 9): 199 µg/mL | ITPP plasma level, Concentration (Cohort 7, Patient 24, Day 9, Hour 10): 143 µg/mL | ITPP plasma level, Concentration (Cohort 8, Patient 25, Day 1, Hour 0): 0 µg/mL | ITPP plasma level, Concentration (Cohort 8, Patient 25, Day 1, Hour 3): 388 µg/mL | ITPP plasma level, Concentration (Cohort 8, Patient 25, Day 1, Hour 6): 497 µg/mL | ITPP plasma level, Concentration (Cohort 8, Patient 25, Day 1, Hour 8.5): 505 µg/mL | ITPP plasma level, Concentration (Cohort 8, Patient 25, Day 1, Hour 9): 317 µg/mL | ITPP plasma level, Concentration (Cohort 8, Patient 25, Day 1, Hour 10): 194 µg/mL | ITPP plasma level, Concentration (Cohort 8, Patient 25, Day 5, Hour 0): 0 µg/mL | ITPP plasma level, Concentration (Cohort 8, Patient 25, Day 5, Hour 3): 354 µg/mL | ITPP plasma level, Concentration (Cohort 8, Patient 25, Day 5, Hour 6): 495 µg/mL | AUC (cohort 1, 1866 mg/m2): 350.7 µg·h/mL | AUMC (cohort 1, 1866 mg/m2): 1994.7 h2*mg/L | CL (cohort 1, 1866 mg/m2): 4.8 L/h | Clast (cohort 1, 1866 mg/m2): 19200 ng/mL | Cmax (cohort 1, 1866 mg/m2): 47200 ng/mL | Cmin (cohort 1, 1866 mg/m2): 0 ng/mL | Elimination rate λz (cohort 1, 1866 mg/m2): 0.5 h⁻¹ | Half life/T0.5 (cohort 1, 1866 mg/m2): 1.3 h | MRT (cohort 1, 1866 mg/m2): 1.7 h | Tlast (cohort 1, 1866 mg/m2): 10.0 h
